Laboratory results published in patent US20250250251A1, “PIPERIDINYLPYRIDINYLCARBONITRILE DERIVATIVES AS INHIBITORS OF GLUTAMINYL-PEPTIDE CYCLOTRANSFERASE AND GLUTAMINYL-PEPTIDE CYCLOTRANSFERASE LIKE PROTEIN” (Boehringer Ingelheim International GmbH, priority 2024, published 2025).

Assays:
[1] = system: SIRPα signalling induced by Raji cells; experiment: Assay B: SIRPα signalling assay using Raji cells; type: cell-based; details: Homo sapiens, Table 5, prior art compounds, read-out: Inhibition of SIRPα signalling induced by Raji cells: IC50
Outline: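 SIRPα signalling induced by Raji cells in a PathHunter reporter line, read as β-galactosidase complementation luminescence. Detection reagent 1 added for 15 min, then reagent 2 for 60 min in the dark, both at room temperature.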

CYP3A4 mRNA = experiment: Assay D: CYP induction screening assay in primary human hepatocytes; type: in vitro ADME; details: Table 10, prior art compounds, 48 h
Outline: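 Single-donor cryopreserved human hepatocytes on collagen with Matrigel overlay were exposed to test compound at […] (0.1% DMSO) for 48 h, medium renewed at 24 h. CYP3A4 mRNA quantified by QuantiGene Plex/Luminex, normalised to geometric mean of RPL32, EIF4E2, GUSB and expressed relative to solvent control.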

[2] = Assay C: permeability in CACO-2 cells; type: in vitro ADME; details: human, Caco-2, pH 7.2
Outline: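 Caco-2 monolayers were grown 10–25 days on porous filter inserts. Compound was applied to the apical or basolateral donor side for A-B or B-A transport (3 filters), and the receiver was sampled for up to 2 h. Quantitation was by HPLC-MS/MS or scintillation; efflux ratio = B-A/A-B permeability.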

QPCT = target: T1, QPCT (Homo sapiens, UniProt Q16769); experiment: Assay A: biochemical QPCT activity assay (MALDI-TOF MS, CD47 peptide substrate); details: Table 3, prior art compounds, read-out: Inhibition of QPCT: IC50
T1 construct: purchased Origine (OriGene) TP700028
T1 sequence (Q16769 29-361): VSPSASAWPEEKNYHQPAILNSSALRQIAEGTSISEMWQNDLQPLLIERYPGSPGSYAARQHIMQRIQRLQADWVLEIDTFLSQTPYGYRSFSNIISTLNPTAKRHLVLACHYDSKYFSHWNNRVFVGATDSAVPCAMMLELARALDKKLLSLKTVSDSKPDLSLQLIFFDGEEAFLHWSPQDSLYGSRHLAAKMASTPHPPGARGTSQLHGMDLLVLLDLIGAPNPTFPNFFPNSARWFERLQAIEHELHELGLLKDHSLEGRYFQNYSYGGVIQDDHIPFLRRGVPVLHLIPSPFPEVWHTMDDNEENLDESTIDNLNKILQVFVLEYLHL
Outline: (§1)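 Enzyme and compound pre-incubated 10 min at 24° C in 20 mM Tris pH 7.5 with TCEP, BSA, Tween20, then 40 min with CD47 peptide (10 μM for QPCTL, 20 μM for QPCT). Pyroglutamate product/internal standard ratio by MALDI-TOF MS, normalized to controls; four-parameter logistic fit.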

[3] = system: SIRPα signalling induced by A549 cells; experiment: Assay B: SIRPα signalling assay using A549 cells; type: cell-based; details: Homo sapiens, Table 5, prior art compounds, read-out: Inhibition of SIRPα signalling induced by A549 cells: IC50
Outline: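 Raji or A549 cells (5000/well) were each incubated with serially diluted compound for 48 h at 37 °C. Jurkat PathHunter SIRPαV1 reporter cells (15000/well) were then added for 5 h. Beta-galactosidase luminescence gave IC50 via a 4-parameter sigmoidal fit.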

QPCTL = target: T2, QPCTL (Homo sapiens, UniProt Q9NXS2); experiment: Assay A: biochemical QPCTL activity assay (MALDI-TOF MS, CD47 peptide substrate); details: Table 3, prior art compounds, read-out: Inhibition of QPCTL: IC50
T2 construct: made in house
T2 sequence (Q9NXS2 whole entry, species assumed): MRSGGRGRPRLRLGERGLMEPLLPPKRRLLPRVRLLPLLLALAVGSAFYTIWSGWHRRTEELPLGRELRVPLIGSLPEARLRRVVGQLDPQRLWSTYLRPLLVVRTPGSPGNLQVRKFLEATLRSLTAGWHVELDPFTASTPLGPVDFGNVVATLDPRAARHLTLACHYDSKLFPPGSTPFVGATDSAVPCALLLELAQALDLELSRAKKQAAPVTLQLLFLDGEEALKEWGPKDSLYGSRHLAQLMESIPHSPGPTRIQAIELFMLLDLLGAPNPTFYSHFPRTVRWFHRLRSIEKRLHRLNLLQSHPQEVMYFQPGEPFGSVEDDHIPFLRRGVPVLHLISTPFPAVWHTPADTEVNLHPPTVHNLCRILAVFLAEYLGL
Outline: as §1

isolated QPCTL = isolated QPCTL (Homo sapiens, UniProt Q9NXS2); details: as disclosed in WO 2024/020517; read-out: Inhibitory activity on isolated QPCTL, IC50; cited from earlier work
Chain of isolated QPCTL (Q9NXS2 whole entry): as the sequence (Q9NXS2 whole entry, species assumed) above

- IC50 [1]: 132 nM
- n-fold induction of CYP3A4 at 10 μM (CYP3A4 mRNA): 1.7 n-fold
- Papp A→B [2]: 0.2 ×10⁻⁶ cm/s
- efflux ratio ([2]; read-out: Efflux Ratio): 45.3
- IC50 (QPCT): 2 nM
- IC50 [3]: 56 nM
- IC50 (QPCTL): 1 nM
Structure (SMILES): Cn1cnnc1C1CCN(c2c(-c3ccnnc3)ccc(Cl)c2C#N)CC1 [Compound 33, reference compound]
- IC50 (isolated QPCTL): < 100 nM
